Laboratory results reported in patent US9828369B2, “Isoquinoline derivatives useful as inhibitors of diacylglyceride O-acyltransferase 2” (Merck Sharp & Dohme Corp., priority 2014, dated 2017).

The compounds below were run against hDGAT2 (Homo sapiens (Human), UniProt Q96PD7) (assay: DGAT2 enzymatic activity assay (triolein formation, LC/MS/MS)). Details: read-out: IC50 values for inhibition of DGAT2; membrane prep of Sf-9 cells expressing hDGAT2; 25 μM diolein, 10 μM oleoyl-CoA; room temperature; triolein by LC/MS/MS.
hDGAT2, sequence (Q96PD7 whole entry): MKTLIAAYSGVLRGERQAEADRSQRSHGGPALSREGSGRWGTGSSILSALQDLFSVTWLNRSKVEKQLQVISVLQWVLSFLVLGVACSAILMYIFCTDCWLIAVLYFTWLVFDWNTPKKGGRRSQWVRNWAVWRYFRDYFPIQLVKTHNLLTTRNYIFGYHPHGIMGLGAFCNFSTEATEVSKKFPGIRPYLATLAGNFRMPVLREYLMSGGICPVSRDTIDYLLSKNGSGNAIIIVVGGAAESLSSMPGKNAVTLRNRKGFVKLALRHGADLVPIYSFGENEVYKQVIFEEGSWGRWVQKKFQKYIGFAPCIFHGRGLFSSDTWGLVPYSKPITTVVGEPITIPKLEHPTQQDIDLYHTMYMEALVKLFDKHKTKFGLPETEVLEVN

Row | IC50 [nM] | Structure (SMILES)
1 | 6110 | COc1cccc(-c2ccc(CNC(=O)C(C)(C)Oc3cc(C(F)(F)F)ccn3)c3cnccc23)c1 [Example 114, N-((5-(3-methoxyphenyl)isoquinolin-8-yl)methyl)-2-methyl-2-((4-(trifluoromethyl)pyridin-2-yl)oxy)propanamide]
2 | 1180 | COc1cccc(-c2ccc(CNC(=O)C3(S(=O)(=O)c4ccc(Cl)cc4)CC3)c3cnccc23)c1 [Example 103, 1-((4-chlorophenyl)sulfonyl)-N-((5-(3-methoxyphenyl)isoquinolin-8-yl)methyl)cyclopropanecarboxamide]
3 | 2000 | COc1cccc(-c2ccc(CNC(=O)C(C)c3cccc(F)c3)c3cnccc23)c1 (centres unmarked) [Example 135, 2-(3-fluorophenyl)-N-((5-(3-methoxyphenyl)isoquinolin-8-yl)methyl)propanamide]
4 | 1650 | COc1cccc(-c2ccc(CNC(=O)c3cccc(-n4nc(C)cc4C)c3)c3cnccc23)c1 [Example 68, 3-(3,5-dimethyl-1H-pyrazol-1-yl)-N-((5-(3-methoxyphenyl)isoquinolin-8-yl)methyl)benzamide]
5 | 8490 | COc1cccc(-c2ccc(CNC(=O)c3cnn(-c4ccccc4)c3)c3cnccc23)c1 [Example 79, N-((5-(3-methoxyphenyl)isoquinolin-8-yl)methyl)-1-phenyl-1H-pyrazole-4-carboxamide]
6 | 324 | COc1cccc(-c2ccc(CNC(=O)C(C)c3ccc(-c4ccccc4)cc3)c3cnccc23)c1 (centres unmarked) [Example 134, 2-([1,1′-biphenyl]-4-yl)-N-((5-(3-methoxyphenyl)isoquinolin-8-yl)methyl)propanamide]
7 | 479 | COc1cccc(-c2ccc(CNC(=O)c3cn(-c4ccccc4)nc3-c3ccccc3)c3cnccc23)c1 [Example 66, N-((5-(3-methoxyphenyl)isoquinolin-8-yl)methyl)-1,3-diphenyl-1H-pyrazole-4-carboxamide]
8 | 4410 | O=C(NCc1ccc(-c2cccc(C(=O)N3CCOCC3)c2)c2ccncc12)Nc1cccc(Cl)c1Cl [Example 166, 1-(2,3-dichlorophenyl)-3-((5-(3-(morpholine-4-carbonyl)phenyl)isoquinolin-8-yl)methyl)urea]
9 | 1180 | COc1cccc(-c2ccc(CNC(=O)C3CC3c3cccc(OC)c3)c3cnccc23)c1 (centres unmarked) [Example 107, 2-(3-methoxyphenyl)-N-((5-(3-methoxyphenyl)isoquinolin-8-yl)methyl)cyclopropanecarboxamide]
10 | 1220 | COc1cccc(-c2ccc(CNC(=O)c3ccncc3-c3ccccc3)c3cnccc23)c1 [Example 77, N-((5-(3-methoxyphenyl)isoquinolin-8-yl)methyl)-3-phenylisonicotinamide]
11 | 513 | COc1cccc(-c2ccc(CNC(=O)C3(c4ccc(C(F)(F)F)cc4)CCC3)c3cnccc23)c1 [Example 123, N-((5-(3-methoxyphenyl)isoquinolin-8-yl)methyl)-1-(4-(trifluoromethyl)phenyl)cyclobutanecarboxamide]
12 | 1950 | CC(C)(C)OC(=O)N1CC=C(c2ccc(CNC(=O)Nc3cccc(Cl)c3Cl)c3cnccc23)CC1 [Example 162, tert-butyl 4-(8-((3-(2,3-dichlorophenyl)ureido)methyl)isoquinolin-5-yl)-5,6-dihydropyridine-1(2H)-carboxylate]
13 | 4420 | O=C(NCc1ccc(C2=CCNC2)c2ccncc12)Nc1cccc(Cl)c1Cl [Example 167, 1-(2,3-dichlorophenyl)-3-((5-(2,5-dihydro-1H-pyrrol-3-yl)isoquinolin-8-yl)methyl)urea]
14 | 483 | COc1cccc(-c2ccc(CNC(=O)Cc3nnc(-c4ccccc4)[nH]3)c3cnccc23)c1 [Example 81, N-((5-(3-methoxyphenyl)isoquinolin-8-yl)methyl)-2-(5-phenyl-4H-1,2,4-triazol-3-yl)acetamide]
15 | 4310 | CC(C)(C)OC(=O)N1CCC=C(c2ccc(CNC(=O)Nc3cccc(Cl)c3Cl)c3cnccc23)C1 [Example 165, tert-butyl 3-(8-((3-(2,3-dichlorophenyl)ureido)methyl)isoquinolin-5-yl)-5,6-dihydropyridine-1(2H)-carboxylate]
16 | 1270 | COc1cccc(-c2ccc(CNC(=O)c3ccn(-c4ccccc4)n3)c3cnccc23)c1 [Example 74, N-((5-(3-methoxyphenyl)isoquinolin-8-yl)methyl)-1-phenyl-1H-pyrazole-3-carboxamide]
17 | 3940 | COc1cccc(-c2ccc(CNC(=O)c3cnn(-c4ccccc4)c3C(F)(F)F)c3cnccc23)c1 [Example 132, N-((5-(3-methoxyphenyl)isoquinolin-8-yl)methyl)-1-phenyl-5-(trifluoromethyl)-1H-pyrazole-4-carboxamide]
18 | 3270 | COc1cccc(-c2ccc(CNC(=O)c3ccn(C)n3)c3cnccc23)c1 [Example 154, N-((5-(3-methoxyphenyl)isoquinolin-8-yl)methyl)-1-methyl-1H-pyrazole-3-carboxamide]
19 | 566 | COc1cccc(-c2ccc(CNC(=O)C(C)c3ccc(C(F)(F)F)cc3)c3cnccc23)c1 (centres unmarked) [Example 141, N-((5-(3-methoxyphenyl)isoquinolin-8-yl)methyl)-2-(4-(trifluoromethyl)phenyl)propanamide]
20 | 426 | COc1cccc(-c2ccc(CNC(=O)Cc3ccc(C(F)(F)F)cc3)c3ncccc23)c1 [Example 150, N-((5-(3-methoxyphenyl)quinolin-8-yl)methyl)-2-(4-(trifluoromethyl)phenyl)acetamide]
21 | 483 | COc1cccc(-c2ccc(CNC(=O)C3CC3c3cccnc3)c3cnccc23)c1 (centres unmarked) [Example 104, N-((5-(3-methoxyphenyl)isoquinolin-8-yl)methyl)-2-(pyridin-3-yl)cyclopropanecarboxamide]

Further lines, the compound ahead of its results:

Row | Structure (SMILES) | IC50 [nM]
22 | COC(=O)c1cccc(-c2ccc(CNC(=O)c3cccc4cnccc34)c3cnccc23)c1 [Example 12, 8-((isoquinoline-5-carboxamido)methyl)-5-(3-(methoxycarbonyl)phenyl) isoquinolin-2-ium] | 196
23 | CCCc1cc(C(=O)NCc2ccc(-c3cccc(OC)c3)c3ccncc23)n(C)n1 [Example 44, N-((5-(3-methoxyphenyl)isoquinolin-8-yl)methyl)-1-methyl-3-propyl-1H-pyrazole-5-carboxamide] | 1430
24 | COc1cccc(-c2ccc(CNC(=O)c3cncc(Br)c3)c3cnccc23)c1 [Example 28, 5-bromo-N-((5-(3-methoxyphenyl)isoquinolin-8-yl)methyl)nicotinamide] | 3930
25 | NC(=O)c1cccc(-c2ccc(CNC(=O)C3CC3c3ccccc3)c3cnccc23)c1 (centres unmarked) [Example 22, 3-(8-((2-phenylcyclopropanecarboxamido)methyl)isoquinolin-5-yl)benzamide] | 6270
26 | COC(=O)c1cccc(-c2ccc(CNC(=O)c3ccnn3C)c3cnccc23)c1 [Example 13, methyl 3-(8-((1-methyl-1H-pyrazole-5-carboxamido)methyl)isoquinolin-5-yl)benzoate] | 1230
27 | COc1cccc(-c2ccc(CNC(=O)c3cccc4cccnc34)c3cnccc23)c1 [Example 32, N-((5-(3-methoxyphenyl)isoquinolin-8-yl)methyl)quinoline-8-carboxamide] | 2010
28 | CCOC(=O)c1cccc(-c2ccc(CNC(=O)C3CC3c3ccccc3)c3cnccc23)c1 (centres unmarked) [Example 14, ethyl 3-(8-((2-phenylcyclopropanecarboxamido)methyl)isoquinolin-5-yl)benzoate] | 71
29 | COc1cccc(-c2ccc(CNC(=O)Cc3ccc(Cl)cc3)c3cnccc23)c1 [Example 47, 2-(4-chlorophenyl)-N-((5-(3-methoxyphenyl)isoquinolin-8-yl)methyl)acetamide] | 1400
30 | COc1cccc(-c2ccc(CNC(=O)c3ccc4c(c3)OCCO4)c3cnccc23)c1 [Example 36, N-((5-(3-methoxyphenyl)isoquinolin-8-yl)methyl)-2,3-dihydrobenzo[b][1,4]dioxine-6-carboxamide] | 3010
31 | COc1cccc(-c2ccc(CNC(=O)Cc3ccccc3OC(F)(F)F)c3cnccc23)c1 [Example 61, N-((5-(3-methoxyphenyl)isoquinolin-8-yl)methyl)-2-(2-(trifluoromethoxy)phenyl)acetamide] | 758
32 | COc1cccc(-c2ccc(CNC(=O)c3cncc4ccccc34)c3cnccc23)c1 [Example 33, N-((5-(3-methoxyphenyl)isoquinolin-8-yl)methyl)isoquinoline-4-carboxamide] | 3410
33 | CCCc1cc(C(=O)NCc2ccc(-c3cccc(C(=O)OC)c3)c3ccncc23)n(C)n1 [Example 9, methyl 3-(8-((1-methyl-3-propyl-1H-pyrazole-5-carboxamido)methyl)isoquinolin-5-yl)benzoate] | 132
34 | COc1cccc(-c2ccc(CNC(=O)CC(c3ccccc3)c3ccco3)c3cnccc23)c1 (centres unmarked) [Example 27, 3-(furan-2-yl)-N-((5-(3-methoxyphenyl)isoquinolin-8-yl)methyl)-3-phenylpropanamide] | 6830
35 | COc1cccc(-c2ccc(CNC(=O)Cc3cc(F)c(F)c(F)c3)c3cnccc23)c1 [Example 60, N-((5-(3-methoxyphenyl)isoquinolin-8-yl)methyl)-2-(3,4,5-trifluorophenyl)acetamide] | 2140
36 | CC(C)Oc1cccc(-c2ccc(CNC(=O)C3CC3c3ccccc3)c3cnccc23)c1 (centres unmarked) [Example 19, N-((5-(3-isopropoxyphenyl)isoquinolin-8-yl)methyl)-2-phenylcyclopropanecarboxamide] | 888
37 | COc1cccc(-c2ccc(CNC(=O)C3CCCN(c4ccccn4)C3)c3cnccc23)c1 (centres unmarked) [Example 41, N-((5-(3-methoxyphenyl)isoquinolin-8-yl)methyl)-1-(pyridin-2-yl)piperidine-3-carboxamide] | 7780
38 | COc1ccc([C@@H]2C[C@@H]2C(=O)NCc2ccc(-c3cccc(OC)c3)c3ccncc23)cc1 (relative stereo) [Example 24, (cis)-2-(4-methoxyphenyl)-N-((5-(3-methoxyphenyl)isoquinolin-8-yl)methyl)cyclopropanecarboxamide] | 589
